1 substance from patent publication US11926826B2, “Twist signaling inhibitor compositions and methods of using the same” (City of Hope, priority 2016, dated 2024) can be followed below.

One series has as its system TWIST1. As to the kind of experiment: TWIST1 knockdown after Lipofectamine 2000 transfection of siRNA in MDA-MB-435S cells (western blot). The class given is cell-based, human. Particulars: unmodified vs passenger-strand modified si419. On the procedure:
Transient transfection of MDA-MB-435S GFP+ffluc was carried out using LIPOFECTAMINE® 2000 (Thermo Fisher Scientific, Waltham, MA) according to the manufacturer's instructions. LIPOFECTAMINE® 2000 transfection was used to confirm the functionality of the siRNA (si419 and si494) prior to testing their efficacy with MSNs. Transfection of siRNA with MSNs was carried out by incubating the MSNs with the siRNA overnight at 4° C. while rotating the tube constantly. The mixture consisted of 7 parts MSN (diluted to 500 ng/ul in sterile PBS) to 1 part siRNA (diluted to 10 uM). The final concentration for of MSNs and siRNA applied to cells was 17.5 ng/ul and 50 nM, respectively.
Western Blot. Following siRNA treatment described above, cells were lifted from tissue culture wells with 0.25% trypsin, pelleted, and lysed in RIPA buffer. Protein concentration was determined using a BCA Assay (Thermo Fisher Scientific). A total of 30 μg of protein per lane was run on 4% stacking and 12% resolving polyacrylamide gels. Following gel electrophoresis, protein was transferred to Immobilon-P PVDF membrane (Millipore, Billerica, MA) using a Trans-Blot SD Semi-Dry Transfer Cell (Bio-Rad, Hercules, CA). Membranes were then blocked with 5% dry milk dissolved in 1×PBS with 0.1% Tween-20. Antibodies were diluted in blocking buffer (1:250 for anti-TWIST1 and 1:2,500 for anti-Actin). […]
On the technique in general: A western blot detects proteins with antibodies after separation by electrophoresis.

In another series the test system is Ovcar8-IP tumors. Nature of the series: Ovcar8-IP intraperitoneal tumor model in NSG mice, MSN-siRNA with or without cisplatin. Particulars: siRNA alone, without cisplatin. The class given is in vivo. The procedure: Animal Studies. The animal studies conducted in these experiments were done in accordance with a protocol approved by the Institutional Animal Care and Use Committee at the City of Hope Beckman Research Institute. A total of 48 female NOD.Cg-Prkdc^scidIl2rg^tm1Wj1/SzJ (NSG) mice (The Jackson Laboratory, Bar Harbor, ME) were used. Ten week old (on average) mice were administered an intraperitoneal injection (IP) of 2.5×10^6 Ovcar8-IP cells in 200 μl of RPMI media. For all studies, mice were placed into four groups: MSN-siQ, MSN-siQ+cisplatin, MSN-si419H, and MSN-si419H+cisplatin (n=4 or n=8). Previous reports show no cellular uptake without MSNs^14, thus a siRNA-only group was not added to this study.
Bioluminescent imaging of mice (using Xenogen IVIS 100 biophotonic imaging system, STTARR, Toronto, Ontario, Canada) commenced seven days after injection of tumor cells in order to ensure engraftment, and continued once a week for four weeks. Mice were given a 100 μl IP injection of 20 mg/ml D-Luciferin (PerkinElmer, Waltham, MA). Ten minutes after the D-luciferin injection, mice were anesthetized with isoflurane (2%-5%) and placed in the biophotonic imager, and images were taken within two minutes. An alfalfa-free version of the regular rodent diet (alfalfa-free CA-1) was administered to the siQ mice to prevent autofluorescence from the regular diet.
IP injections of MSN+siRNA (siQ fluorescently labeled with ALEXAFLUOR® 647 or si419H) were conducted one week after the inoculation of Ovcar8-IP cells and done once or twice per week for a total of four weeks. Mice received 105 μl of 500 ng/μl MSN complexed with 15 μl of 10 μM siRNA per week, divided into one full or two half doses (n=4 and n=8, respectively). This is equivalent to […] MSN/week. Weekly 3 mg/kg IP cisplatin injections were given starting two weeks after initial inoculation of cells.
At completion of the experiment, all animals were euthanized via CO2 asphyxiation. […]
Statistics. All in vivo data was analyzed using one-way ANOVA with correction for multiple comparisons, comparing all groups to MSN-siQ treatment group. […]

The subject of the next series is TWIST. As to the kind of experiment: TWIST knockdown after YTZ3-15 delivery of siRNA in ovarian cancer cell lines. Format: cell-based. On the procedure: PAMAM dendrimer design and delivery. The polyamidoamine (PAMAM) dendrimer used in this study is the […] third generation dendrimer, illustrated in FIG. 16A and previously described. To complex the dendrimer with siRNA, YTZ3-15 at 240 μM was mixed with […] in OptiMEM Low Serum Medium (Thermo Fisher). Upon complexing with siRNA, dendrimers form micelle structures with siRNA at the surface and the hydrophobic tails sequestered in the core (FIG. 16B). 14.6 μl YTZ3-15 and 10 μl siRNA were used per well of a 6-well plate. Final concentrations of YTZ3-15 and siRNA once added to cells were 1.75 μM and 50 nm, respectively. Where indicated, 3.5 μM YTZ3-15 and 100 nm siRNA were used for Ovcar8.
Western Blotting. Following siRNA treatment, cells were pelleted and lysed in RIPA buffer. Protein concentration was determined by BCA assay (Thermo Fisher). Following SDS-PAGE, protein was transferred to Amersham PVDF membrane (Genesee Scientific) using a BioRad Trans-Blot SD semi-dry transfer unit. Blots were then blocked in milk for one hour at room temperature or overnight at 4° C. Incubation with primary antibody took place for one hour at room temperature or overnight at 4° C. Antibodies were diluted in 5% milk, with 0.1-0.2% Tween-20. Antibodies used were TWIST 2c1a (Santa Cruz Biotechnology, Dallas, TX) at 1:250-1:500 dilution, β-Actin, A1978 (Sigma Aldrich, St. Louis, MO) at 1:2500-1:5000 dilution; and Horseradish Peroxidase (HRP) conjugated anti-mouse secondary antibodies. For film-based westerns, Blue Devil film (Genesee Scientific) and ECL Plus chemiluminescent substrate (Thermo Fisher) were used to detect protein. For digital westerns, the Syngene Pxi4 digital blot imager and Michigan Diagnostics FemtoGlow chemilumescent substrate were used.

With “si419: anti-TWIST siRNA; passenger 5′-GGACAAGCUGAGCAAGAUU-3′ (SEQ ID No: 1), guide 5′-AAUCUUGCUCAGCUUGUCCUU-3′ (SEQ ID No: 2) (listed as RNA, chemistry not fully specified)”, in the series with TWIST1, the “knockdown (efficiency, FIG. 6)” value is given as “approximately 80%”. In addition, in the series with Ovcar8-IP tumors, the “change in tumor weight” value is reported as “did not produce a statistically significant change in tumor weight”. For the same substance, the TWIST knockdown result is “successfully knocked down TWIST” with TWIST (A2780R) and “minimal” in the series on TWIST (Ovcar8, double the usual dose (100 nM siRNA)).
